Experimental data published in patent US11065226B2, “Combination comprising EP4 antagonist and immune checkpoint inhibitor” (ONO PHARMACEUTICAL CO., LTD., priority 2016, dated 2021).

Tests used:
[1] = tested on: mouse colorectal cancer cell line MC38; assay: Combination therapy with Example 2-2 and anti-mouse PD-1 antibody in allograft model of MC38; format: in vivo; settings: female C57BL/6 mice, Example 2-2 3 mg/kg orally twice a day day 8 to 24, anti-mouse PD-1 antibody i.p. 20 mg/kg day 8, 10 mg/kg day 14 and 20
Protocol: (§1) The effect of the combination therapy with the compound of Example 2-2 and an anti-mouse PD-1 antibody was evaluated in an allograft model of a mouse colorectal cancer cell line, MC38 (Cancer Res. (1975), 35(9), p 2434-9). The MC38 cells were cultured in a DMEM medium containing 10 vol % FBS, 100 units/mL penicillin, and 100 μg/mL streptomycin in a CO2 incubator. On the day of transplantation, the culture supernatant was removed, and then the MC38 cells were washed with PBS and collected. The collected MC38 cells were suspended in PBS and used as transplant cells. Under anesthesia, 1,000,000 transplant cells were subcutaneously transplanted into the right lateral abdominal regions of female C57BL/6 mice. On day 8 after the transplantation, the mice were divided into four groups of a vehicle group, an Example 2-2 compound-single therapy group, an anti-mouse PD-1 antibody-single therapy group, and a combination therapy group (the compound of Example 2-2 and the anti-mouse PD-1 antibody), each containing 10 individuals. […] The tumor volumes (mm^3) were calculated by the following equation from the tumor lengths along the minor axis and the major axis which were measured using a digital caliper. […]

rat EP4 receptor = molecular target: T1, rat EP4 receptor (Rattus norvegicus, UniProt P43114); assay: EP4 antagonistic activity measurement using prostanoid receptor subtype-expressing cells (cAMP, PGE2 10 nM); format: cell-based; settings: CHO cells expressing rat EP4 receptor; inhibition of cAMP production by PGE2 10 nM; 30 minutes at room temperature
T1 construct: expressed in transfected cells; host or cells: CHO cells
T1 sequence (P43114 whole entry): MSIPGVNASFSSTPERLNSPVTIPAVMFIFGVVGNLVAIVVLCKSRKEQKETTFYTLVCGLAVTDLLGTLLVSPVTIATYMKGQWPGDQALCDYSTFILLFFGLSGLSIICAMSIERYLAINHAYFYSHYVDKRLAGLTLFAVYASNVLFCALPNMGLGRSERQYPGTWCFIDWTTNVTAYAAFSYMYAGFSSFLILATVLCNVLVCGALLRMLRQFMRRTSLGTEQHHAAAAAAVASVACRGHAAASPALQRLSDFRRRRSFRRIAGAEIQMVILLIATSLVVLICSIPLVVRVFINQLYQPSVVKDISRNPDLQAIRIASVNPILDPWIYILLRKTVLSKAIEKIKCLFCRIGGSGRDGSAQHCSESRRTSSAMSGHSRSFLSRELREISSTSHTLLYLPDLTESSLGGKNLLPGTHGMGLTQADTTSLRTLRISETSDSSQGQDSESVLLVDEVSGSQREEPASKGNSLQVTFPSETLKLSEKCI
Protocol: CHO cells expressing rat EP4 receptor subtypes were prepared according to the methods of Nishigaki et al. (Non-Patent Document 4) and used for experiment. Cultured subconfluent cells were detached and suspended in an assay medium (MEM containing 1 mmol/L IBMX, 1% HSA) in a concentration of 1×10^6 cells/mL. To start the reaction, PGE2 was added to the cell suspension (25 μL) in a final concentration of 10 nmol/L, either alone or as a 25-μL PGE2 solution containing a test compound. After 30 minutes of reaction at room temperature, the amount of cAMP in the cells was quantified according to the method in the descriptions of the cAMP assay kit (CISBIO).
The antagonistic effect (IC50 value) of the test compound was calculated as a value that represents an inhibition rate against a reaction with PGE2 alone at 10 nM, a concentration that produces a submaximal cAMP producing effect.

[2] = tested on: mouse colorectal cancer cell line MC38; assay: Combination therapy with Example 2-13 and anti-mouse PD-1 antibody in allograft model of MC38; format: in vivo; settings: female C57BL/6 mice
Protocol: as §1, with “Example 2-13” for “Example 2-2”, “and 100}μg/mL” for “and 100 μg/mL”, “anesthesia, 200,000” for “anesthesia, 1,000,000”, “day 7” for “day 8”

[3] = tested on: mouse colorectal cancer cell line MC38; assay: Combination therapy with Example 2-13 and anti-mouse CTLA-4 antibody in allograft model of MC38; format: in vivo; settings: female C57BL/6 mice, Example 2-13 5 mg/kg orally twice a day day 7 to 28, anti-mouse CTLA-4 antibody i.p. 10 mg/kg day 7, 10, 14, 17
Protocol: (§2) The effect of the combination therapy with the compound of Example 2-13 and an anti-mouse CTLA-4 antibody was evaluated in an allograft model of a mouse colorectal cancer cell line, MC38. The MC38 cells were cultured using a DMEM medium containing 10 vol % FBS, 2 mmol/L Glutamax, 100 units/mL penicillin, and 100 μg/mL streptomycin in a CO2 incubator. On the day of transplantation, the culture supernatant was removed, and then the MC38 cells were washed with PBS and collected. The collected MC38 cells were suspended in PBS and used as transplant cells. Under anesthesia, 1,000,000 transplant cells were subcutaneously transplanted into the right lateral abdominal regions of female C57BL/6 mice. On day 7 after the transplantation, the mice were divided into four groups of a vehicle group, an Example 2-13 compound-single therapy group, an anti-mouse CTLA-4 antibody-single therapy group, and a combination therapy group (the compound of Example 2-13 and the anti-mouse CTLA-4 antibody), each containing 15 individuals. […] The tumor volumes (mm^3) were calculated by the following equation from the tumor lengths along the minor axis and the major axis and the tumor height which were measured using a digital caliper. […]

[4] = tested on: mouse fibrosarcoma cell line SalN; assay: Combination therapy with Example 2-13 and anti-mouse PD-1 antibody in allograft model of SalN; format: in vivo; settings: female A/J mice, Example 2-13 5 mg/kg orally twice a day day 7 to 21, anti-mouse PD-1 antibody i.p. 3 mg/kg day 7, 10, 14, 17
Protocol: as §2, with “PD-1” for “CTLA-4”, “fibrosarcoma” for “colorectal cancer”, “SalN (Cancer Res. (2012), 72(4), p 917-27).” for “MC38.”, “SalN” for “MC38”, “2,000,000” for “1,000,000”, “A/J” for “C57BL/6”

[5] = tested on: mouse colorectal cancer cell line CT26; assay: Combination therapy with Example 2-13 and anti-mouse PD-1 antibody in allograft model of CT26; format: in vivo; settings: female BALB/c mice, Example 2-13 5 mg/kg orally twice a day day 7 to 21, anti-mouse PD-1 antibody i.p. 3 mg/kg day 7, 10, 14, 17
Protocol: as §2, with “PD-1” for “CTLA-4”, “CT26 (Cancer Res. (2013), 73(12), p3591-603).” for “MC38.”, “CT26” for “MC38”, “RPMI” for “DMEM”, “BALB/c” for “C57BL/6”, “15 to 18” for “15”

With `COCCNC(=O)c1ccc2c(c1)[C@]1(CCO2)C[C@H]1C(=O)Nc1cc(C#N)ccc1CCCC(=O)O` [Example 2-2] the “tumor growth (tumor volume, FIG. 2)” value [1] was “inhibited the tumor growth alone”.
Molecule `Cn1cc(NC(=O)c2ccc3c(c2)[C@]2(CCO3)C[C@H]2C(=O)Nc2cc(C#N)ccc2CCCC(=O)O)cn1` [Example 2-5] has an IC50 (rat EP4 receptor) of 1.3 nM.
For `CC(C)NC(=O)c1ccc2c(c1)[C@]1(CCO2)C[C@H]1C(=O)Nc1cc(C#N)ccc1CCCC(=O)O` [Example 2-13, 4-[4-cyano-2-({[(2′R,4S)-6-(isopropylcarbamoyl)-2,3-dihydrospiro[chromene-4,1′-cyclopropan]-2′-yl]carbonyl}amino)phenyl]butanoic acid], the “Cases of Disappearance of Tumor/Cases” value ([2]; Example 2-13 3 mg/kg orally twice a day to day 28, anti-mouse PD-1 antibody i.p. 20 mg/kg day 7, 10 mg/kg day 13 and 19) was 0/10, the “tumor growth (tumor volume, FIG. 1)” value ([2]; Example 2-13 3 mg/kg orally, anti-mouse PD-1 antibody i.p. 20 mg/kg then 10 mg/kg) was “inhibited the tumor growth alone” and the “tumor growth (tumor volume, FIG. 3)” value [3] was “inhibited the tumor growth alone”. The “tumor growth (tumor volume, FIG. 4)” value [4] was “inhibited the tumor growth alone” and the “tumor growth (tumor volume, FIG. 5)” value [5] was “inhibited the tumor growth alone”.
